Drawing on paper PMC5380139 (FEBS letters, 2017), this text covers Ki for one compound.

The target in the assay is T1, LipL (Streptomyces sp., UniProt D4QF25).
T1 sequence (D4QF25 1-274): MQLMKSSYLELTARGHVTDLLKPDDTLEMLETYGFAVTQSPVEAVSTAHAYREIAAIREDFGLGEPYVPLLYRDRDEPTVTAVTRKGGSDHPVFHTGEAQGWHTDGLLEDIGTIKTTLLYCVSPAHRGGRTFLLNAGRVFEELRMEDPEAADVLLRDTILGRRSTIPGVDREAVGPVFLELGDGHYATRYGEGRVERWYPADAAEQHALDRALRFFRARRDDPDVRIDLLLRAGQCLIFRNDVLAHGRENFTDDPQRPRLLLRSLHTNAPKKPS
The class given is biochemical.

For the compound `O=c1ccn([C@@H]2O[C@H](CCP(=O)(O)O)[C@@H](O)[C@H]2O)c(=O)[nH]1` [UMcP, 5′-deoxyuridine-5′-methylphosphonate], the inhibition constant (Ki) was 800 nM. This counts as sub-micromolar.

As a reminder, the Ki is the equilibrium dissociation constant of an inhibitor or competing ligand from its target. Low values mean tighter binding, high ones weaker binding.
